According to PubChem BioAssay AID308 (DTP/NCI, 2004):
Several values for one entry are separate records, joined by “and”; a condition that tells them apart may be missing. Equal entries are not always repeated. Toxic doses and inconclusive results are not listed.

Tested on: BDF1 mice, L1210 6-MP/6-TG resistant leukemia ip, survival T/C
Assay: NCI In Vivo Anticancer Drug Screen. Data for tumor model L1210 Leukemia resistant to 6-MP and 6-Thioguanine; NSC 755, NSC 752 (intraperitoneal) in B6D2F1 (BDF1) mice
Conditions: endpoint: mean survival time, higher = longer survival
Description: The antitumor activity of compounds was measured in mice bearing transplantable tumors. Survival or tumor size were measured and the results are expressed as the measurement made in the treated group (T) divided by the measurement made in the vehicle treated control group (C). The tumor model used in this assay is L1210 Leukemia resistant to 6-MP and 6-Thioguanine; NSC 755, NSC 752 (intraperitoneal) in B6D2F1 (BDF1) mice

[1] = dose: 25.0 mg/kg/injection, schedule: Q01DX Z (ip), vehicle: carboxymethylcellulose (CMC)

For `CSc1ncnc2c1ncn2C1OC(CO)C(O)C1O` (stereo not given), the T/C (dose: 2.0 mg/kg/injection, schedule: Q01DX Z (ip), vehicle: saline) was 117 % of control, the T/C (dose: 3.0 mg/kg/injection, schedule: Q01DX015 (ip), vehicle: saline) was 119 % of control and 121 % of control and the T/C (dose: 4.0 mg/kg/injection, schedule: Q01DX Z (oral), vehicle: saline) was 100 % of control. The T/C (dose: 7.0 mg/kg/injection, schedule: Q01DX015 (ip), vehicle: saline) was 158 % of control, the T/C (dose: 7.0 mg/kg/injection, schedule: Q01DX Z (ip), vehicle: saline) was 151 % of control and the T/C (dose: 8.0 mg/kg/injection, schedule: Q01DX Z (ip), vehicle: saline) was 168 % of control. The T/C (dose: 8.0 mg/kg/injection, schedule: Q01DX Z (oral), vehicle: saline) was 107 % of control, the T/C (dose: 10.0 mg/kg/injection, schedule: Q## X032 (ip), vehicle: saline) was 114 % of control and the T/C (dose: 12.0 mg/kg/injection, schedule: Q01DX001 (ip), vehicle: alkali diluted with saline) was 102 % of control and 103 % of control. For the same compound, the T/C (dose: 12.0 mg/kg/injection, schedule: Q01DX Z (ip), vehicle: saline) was 175 % of control, the T/C (dose: 12.0 mg/kg/injection, schedule: Q01DX Z (oral), vehicle: saline) was 100 % of control and the T/C (dose: 13.0 mg/kg/injection, schedule: Q02DX008 (ip), vehicle: saline) was 122 % of control. For the same compound, the T/C (dose: 13.0 mg/kg/injection, schedule: Q## X004 (ip), vehicle: saline) was 108 % of control, the T/C (dose: 16.0 mg/kg/injection, schedule: Q01DX015 (ip), vehicle: saline) was 152 % of control and 166 % of control and the T/C (dose: 16.0 mg/kg/injection, schedule: Q01DX Z (ip), vehicle: clinical formulation) was 123 % of control. The T/C (dose: 16.0 mg/kg/injection, schedule: Q01DX Z (ip), vehicle: saline) was 191 % of control, the T/C (dose: 16.0 mg/kg/injection, schedule: Q01DX Z (oral), vehicle: saline) was 111 % of control and the T/C (dose: 18.0 mg/kg/injection, schedule: Q01DX001 (ip), vehicle: alkali diluted with saline) was 116 % of control and 103 % of control. For the same compound, the T/C (dose: 18.0 mg/kg/injection, schedule: Q01DX001 (ip), vehicle: saline) was 112 % of control and 98 % of control, the T/C (dose: 21.0 mg/kg/injection, schedule: Q01DX015 (ip), vehicle: saline) was 159 % of control and the T/C (dose: 24.0 mg/kg/injection, schedule: Q01DX015 (ip), vehicle: saline) was 163 % of control. The T/C (dose: 24.0 mg/kg/injection, schedule: Q01DX Z (ip), vehicle: saline) was 119 % of control, the T/C (dose: 24.0 mg/kg/injection, schedule: Q01DX Z (oral), vehicle: saline) was 113 % of control and 120 % of control and the T/C (dose: 24.0 mg/kg/injection, schedule: Q## X032 (ip), vehicle: saline) was 150 % of control. For the same compound, the T/C (dose: 26.0 mg/kg/injection, schedule: Q01DX001 (ip), vehicle: alkali diluted with saline) was 118 % of control and 111 % of control, the T/C (dose: 26.0 mg/kg/injection, schedule: Q01DX001 (ip), vehicle: saline) was 104 % of control and the T/C (dose: 27.0 mg/kg/injection, schedule: Q01DX001 (ip), vehicle: saline) was 114 % of control and 108 % of control. For the same compound, the T/C (dose: 32.0 mg/kg/injection, schedule: Q01DX Z (ip), vehicle: saline) was 121 % of control, the T/C (dose: 32.0 mg/kg/injection, schedule: Q01DX Z (oral), vehicle: saline) was 120 % of control and 106 % of control and the T/C (dose: 32.0 mg/kg/injection, schedule: Q## X032 (ip), vehicle: saline) was 152 % of control and 158 % of control. The T/C (dose: 36.0 mg/kg/injection, schedule: Q01DX015 (ip), vehicle: saline) was 114 % of control, the T/C (dose: 37.0 mg/kg/injection, schedule: Q01DX Z (ip), vehicle: saline) was 95 % of control and the T/C (dose: 40.0 mg/kg/injection, schedule: Q01DX001 (ip), vehicle: alkali diluted with saline) was 119 % of control and 106 % of control. The T/C (dose: 40.0 mg/kg/injection, schedule: Q01DX001 (ip), vehicle: saline) was 117 % of control and 98 % of control and 108 % of control, the T/C (dose: 44.0 mg/kg/injection, schedule: Q02DX008 (ip), vehicle: saline) was 158 % of control and the T/C (dose: 45.0 mg/kg/injection, schedule: Q01DX015 (ip), vehicle: saline) was 92 % of control and 94 % of control. The T/C (dose: 45.0 mg/kg/injection, schedule: Q## X004 (ip), vehicle: saline) was 157 % of control, the T/C (dose: 48.0 mg/kg/injection, schedule: Q01DX Z (ip), vehicle: saline) was 96 % of control and the T/C (dose: 48.0 mg/kg/injection, schedule: Q01DX Z (oral), vehicle: saline) was 95 % of control and 103 % of control. The T/C (dose: 48.0 mg/kg/injection, schedule: Q## X032 (ip), vehicle: saline) was 164 % of control and 171 % of control, the T/C (dose: 50.0 mg/kg/injection, schedule: Q01DX Z (ip), vehicle: saline) was 90 % of control and the T/C (dose: 54.0 mg/kg/injection, schedule: Q01DX001 (ip), vehicle: saline) was 109 % of control. For the same compound, the T/C (dose: 60.0 mg/kg/injection, schedule: Q01DX001 (ip), vehicle: saline) was 119 % of control and 107 % of control, the T/C (dose: 61.0 mg/kg/injection, schedule: Q01DX001 (ip), vehicle: alkali diluted with saline) was 113 % of control and the T/C (dose: 61.0 mg/kg/injection, schedule: Q01DX001 (ip), vehicle: saline) was 113 % of control. For the same compound, the T/C (dose: 67.0 mg/kg/injection, schedule: Q## X004 (ip), vehicle: saline) was 162 % of control, the T/C (dose: 72.0 mg/kg/injection, schedule: Q## X032 (ip), vehicle: saline) was 165 % of control and 166 % of control and the T/C (dose: 81.0 mg/kg/injection, schedule: Q01DX001 (ip), vehicle: saline) was 124 % of control. For the same compound, the T/C (dose: 90.0 mg/kg/injection, schedule: Q01DX001 (ip), vehicle: saline) was 109 % of control, the T/C (dose: 92.0 mg/kg/injection, schedule: Q01DX001 (ip), vehicle: alkali diluted with saline) was 123 % of control and 111 % of control and the T/C (dose: 100.0 mg/kg/injection, schedule: Q02DX008 (ip), vehicle: saline) was 99 % of control. For the same compound, the T/C (dose: 100.0 mg/kg/injection, schedule: Q## X004 (ip), vehicle: saline) was 170 % of control, the T/C (dose: 108.0 mg/kg/injection, schedule: Q## X032 (ip), vehicle: saline) was 116 % of control and 98 % of control and the T/C (dose: 138.0 mg/kg/injection, schedule: Q01DX001 (ip), vehicle: alkali diluted with saline) was 116 % of control. The T/C (dose: 138.0 mg/kg/injection, schedule: Q01DX001 (ip), vehicle: saline) was 118 % of control, the T/C (dose: 150.0 mg/kg/injection, schedule: Q## X004 (ip), vehicle: saline) was 164 % of control and the T/C (dose: 207.0 mg/kg/injection, schedule: Q01DX001 (ip), vehicle: alkali diluted with saline) was 119 % of control and 124 % of control. For the same compound, the T/C (dose: 300.0 mg/kg/injection, schedule: Q01DX001 (ip), vehicle: saline) was 111 % of control.
For `CCCSc1ncnc2nc[nH]c12`, the T/C (dose: 43.5 mg/kg/injection, schedule: Q01DX Z (ip), vehicle: other) was 98 % of control, the T/C (dose: 87.0 mg/kg/injection, schedule: Q01DX Z (ip), vehicle: other) was 105 % of control and the T/C (dose: 175.0 mg/kg/injection, schedule: Q01DX Z (ip), vehicle: other) was 91 % of control.
`CN(C)C(=S)N=Nc1c(O)[nH]c2ccccc12` was tested, and the T/C [1] was 107 % of control, the T/C (dose: 50.0 mg/kg/injection, schedule: Q01DX Z (ip), vehicle: carboxymethylcellulose (CMC)) was 105 % of control and the T/C (dose: 100.0 mg/kg/injection, schedule: Q01DX Z (ip), vehicle: carboxymethylcellulose (CMC)) was 91 % of control.
With `Nc1nc(SCc2ccccc2)c2[nH]cnc2n1` the T/C (dose: 5.0 mg/kg/injection, schedule: Q01DX Z (ip), vehicle: carboxymethylcellulose (CMC)) was 88 % of control, the T/C (dose: 10.0 mg/kg/injection, schedule: Q01DX Z (ip), vehicle: carboxymethylcellulose (CMC)) was 91 % of control and the T/C [1] was 86 % of control. For the same compound, the T/C (dose: 37.5 mg/kg/injection, schedule: Q01DX Z (ip), vehicle: carboxymethylcellulose (CMC)) was 95 % of control.
For `CCCCNc1ncnc2c1cnn2C`, the T/C (dose: 2.5 mg/kg/injection, schedule: Q01DX Z (ip), vehicle: saline) was 105 % of control, the T/C (dose: 5.0 mg/kg/injection, schedule: Q01DX Z (ip), vehicle: saline) was 105 % of control and the T/C (dose: 10.0 mg/kg/injection, schedule: Q01DX Z (ip), vehicle: saline) was 105 % of control. For the same compound, the T/C (dose: 20.0 mg/kg/injection, schedule: Q01DX Z (ip), vehicle: saline) was 104 % of control, the T/C (dose: 31.0 mg/kg/injection, schedule: Q01DX Z (ip), vehicle: saline) was 119 % of control and the T/C (dose: 62.5 mg/kg/injection, schedule: Q01DX Z (ip), vehicle: saline) was 104 % of control. For the same compound, the T/C (dose: 125.0 mg/kg/injection, schedule: Q01DX Z (ip), vehicle: saline) was 95 % of control.
